The record followed here is patent US9388123B2, “LSD1-selective inhibitor having lysine structure” (KYOTO UNIVERSITY, priority 2012, dated 2016).

Molecules are shown by their SMILES. Counter-ions that a name gives are not always drawn.

One experiment concerns SH-SY5Y cells. The experiment in a line: Cancer cell growth inhibition evaluation (MTT assay). As to conditions: Homo sapiens, read-out: GI50 (μM) SH-SY5Y. In kind it is cell-based. The procedure:
(§1) Evaluation was performed by measuring the inhibitory activities of a compound against the growth of a human cervical cancer-derived cell line, HeLa cells, and a human neuroblastoma cell line, SH-SY5Y cells. Details thereof are shown below. […] This assay involves, as a principle thereof, measuring an absorbance at the time of color development through a reaction of NADH, which is contained in the mitochondria of viable cells, and MTT to measure the amount of NADH. The assay was performed by the following procedure. […] After the culture, a compound was added. Then, the cells were cultured for an additional 48 hours, and then 5 mg/ml MTT liquid was added at 10 μl per well. The cells were cultured for an additional 3 hours in a CO2 incubator. A solubilization solution (0.04 mol/l hydrochloric acid-isopropanol) was added at 100 μl per well and the mixture was vigorously vortexed. After that, an absorbance at 560 nm was measured with Fusion-aFP (manufactured by PerkinElmer) and the amount of viable cells was determined.
(In general: Tetrazolium assays rely on reduction of a dye to a coloured formazan, in cell work by metabolically active cells.)

The test system of a further experiment is HeLa cells. The description is as above. Type of experiment: cell-based. As to conditions: Homo sapiens, 48 h, read-out: GI50 (μM) HeLa. As to the method:
as §1

The target of experiment [1] is T1, monoamine oxidase B (MAO-B) (Homo sapiens, UniProt P27338).
T1 construct: purchased Sigma-Aldrich
T1 sequence (P27338 1-520): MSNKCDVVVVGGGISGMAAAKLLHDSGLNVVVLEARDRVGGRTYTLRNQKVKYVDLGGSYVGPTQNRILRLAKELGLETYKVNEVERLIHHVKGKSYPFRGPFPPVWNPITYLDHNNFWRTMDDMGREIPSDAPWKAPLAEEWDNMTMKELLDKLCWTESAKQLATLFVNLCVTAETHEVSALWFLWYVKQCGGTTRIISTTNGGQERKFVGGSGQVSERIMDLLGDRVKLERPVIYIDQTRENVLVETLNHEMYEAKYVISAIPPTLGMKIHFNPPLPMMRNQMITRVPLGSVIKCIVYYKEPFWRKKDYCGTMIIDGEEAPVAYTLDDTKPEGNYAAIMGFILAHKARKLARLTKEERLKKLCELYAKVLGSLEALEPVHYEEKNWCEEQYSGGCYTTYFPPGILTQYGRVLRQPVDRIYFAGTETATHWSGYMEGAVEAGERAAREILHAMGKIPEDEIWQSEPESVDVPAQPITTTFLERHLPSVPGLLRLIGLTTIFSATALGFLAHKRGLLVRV
The experiment in a line: Monoamine oxidase inhibition test (MAO-Glo assay kit). In kind it is biochemical. The note with it: room temperature, 1 hour.
Experimental: (§6) To the reaction liquid was added 50 μL of a luciferin detection reagent, and the mixture was subjected to a reaction at room temperature for 20 minutes.

Experiment [2] has as its system MLL/ENL leukemia cell line. The experiment in a line: Leukemia cell growth inhibition evaluation (WST-8). In kind it is cell-based. As to conditions: Mus musculus; day 3 (72-hour culture); read-out: Mouse MLL-fusion leukemia cell line GI50 (μM) MLL/ENL. From the text: (§2) HL60, THP-1, K562, U937, KGla, HEL, and MDS-L were used as human leukemia cells. The cell lines are cell lines established from various subtypes such as acute myeloid leukemia, acute promyelocytic leukemia, acute monocytic leukemia, acute erythroid leukemia, and myelodysplastic syndromes, which progress to leukemia. Cells obtained by introducing leukemia fusion genes MLL/AF9, MLL/SEPT6, and MLL/ENL into the bone marrow of normal mice with a retrovirus so as to develop leukemia were used as murine leukemia cell lines.
(§3) This assay method involves, as a principle thereof, measuring an absorbance (a peak at from 450 nm to 490 nm) at the time of color development through a reaction of NADH, which is contained in the mitochondria of viable cells, and WST-8 to measure the amount of NADH. Specifically, the assay was performed by the following procedure.
(§4) The cells were plated at 50 μl, i.e., 5,000 cells per well in a 96-well microtiter plate. Next, a test compound dissolved in DMSO was mixed at various concentrations into the same medium, and 50 μl of each of the mixtures was added to each well. A medium was prepared so that the final concentration of the test compound was from 0 μM to 50 μM and so that the addition amount of DMSO was the same, and the cells were cultured in a CO2 incubator. On day 0 before the addition and on day 1, day 2, and day 3 after the addition, WST-8 reagent was added at 20 μl per well, and the cells were cultured for 1 hour in a CO2 incubator. After that, measurement was performed with ARVO X3 (manufactured by PerkinElmer).
(§5) Specifically, an absorbance at 450 nm was measured, an absorbance at 595 nm was measured in the same well, and the absorbance at 595 nm was subtracted from the absorbance at 450 nm to perform background correction for the well itself. Further, a well containing only a medium free of cells was subjected to the same measurement. A value in this case was also subtracted. Thus, the amount of viable cells was represented as a numerical value with correction of the influence of a medicament or a medium as well. Under a condition not containing the test compound (addition of only dimethyl sulfoxide), an exponential increase in number of viable cells on day 1, day 2, and day 3 in the stated order was confirmed.

Experiment [3] relates to MLL/AF9 leukemia cell line. The experiment in a line: Leukemia cell growth inhibition evaluation (WST-8). Type of experiment: cell-based. As to conditions: Mus musculus, day 3 (72-hour culture), read-out: Mouse MLL-fusion leukemia cell line GI50 (μM) MLL/AF9.
Excerpt: as §2, §3, §4, §5

In the next experiment the test system is K562. The experiment in a line: Leukemia cell growth inhibition evaluation (WST-8). The note with it: Homo sapiens, day 3 (72-hour culture), read-out: Human leukemia cell line GI50 (μM) K562. In kind it is cell-based.
Excerpt: as §2, §3, §4, §5

A further experiment deals with M7. The experiment in a line: Leukemia cell growth inhibition evaluation (WST-8). The note with it: Homo sapiens; day 3 (72-hour culture); read-out: Human leukemia cell line GI50 (μM) M7. Type of experiment: cell-based.
Excerpt: as §2, §3, §4, §5

Another experiment has as its system HL60. The experiment in a line: Leukemia cell growth inhibition evaluation (WST-8). Type of experiment: cell-based. As to conditions: Homo sapiens, HL-60; day 3 (72-hour culture); read-out: Human leukemia cell line GI50 (μM) HL60.
Excerpt: as §2, §3, §4, §5

Another experiment has as its system THP1. The experiment in a line: Leukemia cell growth inhibition evaluation (WST-8). As to conditions: Homo sapiens, THP-1; day 3 (72-hour culture); read-out: Human leukemia cell line GI50 (μM) THP1. Type of experiment: cell-based.
Excerpt: as §2, §3, §4, §5

A further experiment relates to U937. The experiment in a line: Leukemia cell growth inhibition evaluation (WST-8). Type of experiment: cell-based. The note with it: Homo sapiens, U-937; day 3 (72-hour culture); read-out: Human leukemia cell line GI50 (μM) U937.
Excerpt: as §2, §3, §4, §5

A further experiment concerns KG1a. The experiment in a line: Leukemia cell growth inhibition evaluation (WST-8). As to conditions: Homo sapiens, KG-1a; day 3 (72-hour culture); read-out: Human leukemia cell line GI50 (μM) KG1a. In kind it is cell-based.
Excerpt: as §2, §3, §4, §5

Experiment [4] has as its system human leukemia cell lines. The experiment in a line: Leukemia cell growth inhibition evaluation, summary in words. Type of experiment: cell-based. The note with it: Table 5.
Excerpt: as §2, §3, §4, §5

Experiment [5] concerns murine leukemia cell lines. Described as above. Type of experiment: cell-based. The note with it: Table 6.
Excerpt: as §2, §3, §4, §5

Experiment [6] addresses T2, monoamine oxidase A (MAO-A) (Homo sapiens, UniProt P21397).
T2 construct: purchased Sigma-Aldrich
T2 sequence (P21397 1-527): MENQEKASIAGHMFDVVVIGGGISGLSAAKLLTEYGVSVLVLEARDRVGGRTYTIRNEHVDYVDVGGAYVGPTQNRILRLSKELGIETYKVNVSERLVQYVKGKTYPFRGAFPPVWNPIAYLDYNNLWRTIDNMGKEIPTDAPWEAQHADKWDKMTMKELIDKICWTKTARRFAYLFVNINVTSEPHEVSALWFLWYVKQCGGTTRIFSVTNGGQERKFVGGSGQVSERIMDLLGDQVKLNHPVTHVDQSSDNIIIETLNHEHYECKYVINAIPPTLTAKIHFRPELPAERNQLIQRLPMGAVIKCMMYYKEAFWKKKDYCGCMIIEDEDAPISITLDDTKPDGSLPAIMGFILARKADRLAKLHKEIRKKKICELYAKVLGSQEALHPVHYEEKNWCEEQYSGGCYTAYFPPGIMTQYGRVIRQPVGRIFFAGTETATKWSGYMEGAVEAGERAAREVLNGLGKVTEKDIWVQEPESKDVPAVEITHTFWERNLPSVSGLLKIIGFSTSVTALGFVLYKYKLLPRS
The experiment in a line: Monoamine oxidase inhibition test (MAO-Glo assay kit). In kind it is biochemical. The note with it: room temperature, 1 hour.
Experimental: as §6

On to `NC1CC1c1cccc(OCC[C@H](NC(=O)c2ccccc2)C(=O)NCc2ccccc2)c1` (stereo partly drawn) [Comp. Ex. 2, (S)-trans-N-3-[3-(2-aminocyclopropyl)phenoxy]-1-benzylcarbamoylpropylbenzamide hydrochloride, reference compound], for which the GI50 in the experiment with SH-SY5Y cells was 27 µM; in the experiment with HeLa cells, 13 µM; in [2] it was less than 3.1 µM; in [3] it was less than 3.1 µM; with K562 it was 25 to 50 µM; with M7, more than 50 µM. Also, the GI50 in the experiment on HL60 is 6.1 to 33 µM; in the experiment with THP1 it was more than 50 µM; with U937, 25 to 50 µM; in the experiment on KG1a it was more than 50 µM. The IC50 came out at 326 µM in [1] and 129 µM in experiment [6]. In addition, the “growth inhibitory / suppressing effect on the human leukemia cell lines (in words)” value in experiment [4] is on record as “a variation in growth inhibitory effect on the human leukemia cell lines depending on the cell lines”. The “growth inhibitory / suppressing effect on the murine leukemia cell lines (in words)” value in [5] is on record as “high growth inhibitory effects”.

By IC50 is commonly meant the concentration at which inhibition is half-maximal. Higher therefore signals weaker potency.
